Here are results for seven compounds from ChEMBL document CHEMBL1153646, “Peptidomimetic inhibitors of p21ras farnesyltransferase: Hydrophobic functionalization leads to disruption of p21ras membrane association in whole cells” (Bioorg Med Chem Lett, 1994).

The target in experiment [1] is Protein farnesyltransferase (Mus musculus) (UniProt Q61239+Q8K2I1). Kind of experiment: In vivo inhibition of p21ras-farnesyl transferase in NIH3T3 cells (No inhibition). The class given is functional.
Experiment [2] addresses Protein farnesyltransferase (Homo sapiens, UniProt P49354+P49356). The experiment is described as follows: In vitro inhibition of [3H]FPP incorporation into recombinant P21ras of NIH3T3 cells by farnesyl transferase. The class given is cell-based.

The source made the active and inactive calls. No cut-off for these calls is given here.

The term IC50 denotes the concentration that inhibits the measured activity by half.

In the case of `CSCC[C@H](NC(=O)c1cccc(CNC(=O)[C@@H](N)CS)c1)C(=O)O`, the inhibition entry in experiment [1] was “inactive”. Further, the IC50 in experiment [2] was determined as 0.38 µM. In the case of `CC[C@H](C)[C@H](NC(=O)[C@@H](NC(=O)[C@@H](N)CS)C(C)C)C(=O)N[C@@H](CCSC)C(=O)O`, the IC50 in experiment [2] was found to be 0.34 µM. The same measure, in the same setting: to `COC(=O)[C@H](CCSC)NC(=O)c1cccc(CNC(=O)[C@@H](N)CS)c1` belongs 18 µM. On to `CC[C@@H](C)[C@H](NC(=O)[C@@H](NC(=O)[C@H](CSC(=O)OCc1ccccc1)NC(=O)OCc1ccccc1)C(C)C)C(=O)N[C@@H](CCSC)C(=O)OC`, for which, in experiment [1], the inhibition result is “inactive”. Further, the 50% inhibitory concentration (IC50) in experiment [2] stood at 90 µM. Turning to `COC(=O)[C@H](CCSC)NC(=O)c1cccc(CNC(=O)[C@H](CS)NC(C)=O)c1`, in experiment [1], the inhibition result is “inactive”. In addition, in experiment [2], the IC50 came to 100 µM.

As for `CSCC[C@H](NC(=O)c1cccc(CNC(=O)[C@H](CS)NC(=O)OCc2ccccc2)c1)C(=O)O`, the inhibition result in experiment [1] was “inactive”. Further, the IC50 in experiment [2] was determined as 14 µM. Turning to `COC(=O)[C@H](CCSC)NC(=O)c1cccc(CNC(=O)[C@H](CSC(=O)OCc2ccccc2)NC(=O)OCc2ccccc2)c1`, in experiment [2], the half-maximal inhibitory concentration (IC50) stood at 100 µM.
